The values below are quoted from earlier work in patent US20150017242A1 (Lupin Limited, priority 2012, published 2015).

Where two headings read alike, the source gives them in different places.

Test in series [1]: not given
The source holds these as a separate data set.

On to `CCCCc1oc2ccc(NS(C)(=O)=O)cc2c1C(=O)c1ccc(OCCCN(CCCC)CCCC)cc1.Cl` [Dronedarone, N-{2-butyl-3-[4-(3-dibutylaminopropoxy)benzoyl]benzofuran-5-yl}methane sulfonamide, hydrochloride], for which the absolute oral bioavailability entry is listed as “approx. 15%” (administered with a high fat meal) and 4% (fasting). Moreover, in series [1], the “behaviour at higher pH condition” value is on record as “precipitates out”.
